# In patent US10351525B2, “Beta lactamase inhibitors” (Oxford University Innovation Limited, priority 2014, dated 2019):
# How the values were obtained:
# [1] = target: TEM-1 (Escherichia coli, UniProt P62593); assay: Inhibition studies TEM-1; assay type: biochemical; conditions: for Inhibition verdict: TEM-1, 100 μM; for remaining activity at 100 µM: read-out: RA (residual activity); on Inhibition verdict: key: N.I.—not inhibited
# Method: To investigate the selectivity of ML302/ML302F for bacterial MBLs, activity was tested against TEM-1 (a Class A SBL), PBP-5 (penicillin-binding protein 5 or dacA) and PBP-6 (penicillin-binding protein 6, or dacC) from E. coli, hHAT (human histone acetyltransferase) and hHDAC (human histone deacetylase). TEM-1, PBP-5 and -6 and hHAT are known to be inhibited by rhodanines. Selectively against hACE-2 (Angiotensin converting enzyme 2) and hHAGH (Hydroxyacylglutathione hydrolase, human Glyoxylase II) was also tested.
# The inhibition analysis for TEM-1 was performed using the modified method that was previously described for MBLs.21 In brief: ML302 and ML302F were screened at a single concentration (100 μM) in duplicate. Inhibition was tested by pre-incubation of the appropriate amount of TEM-1 (1 nM final concentration) and ML302 or ML302F in the assay buffer (50 mM HEPES-NaOH buffer (pH 7.2) supplemented with 0.01% Triton 100) for 10 min. at r.t. prior to the initiation of the assay by the addition of FC5 ((6R,7R)-8-Oxo-3-(((2-oxo-2H-chromen-7-yl)oxy)methyl)-7-(2-phenylacetamido)-5-thia-1-azabicyclo[4.2.0]oct-2-ene-2-carboxylic acid 5,5-dioxide)21 (10 μM final concentration). The hydrolysis of FC5 was monitored by following the variation on fluorescence reading (380 nm—excitation and 460 nm—emission) using 384 well flat bottom plates (Greiner Bio-One). The experiments were performed on a PHERAstar FS-BMG Labtech microplate reader at r.t. (24-25° C.). All enzymes and inhibitors were prepared in the assay buffer.
# [2] = system: K. pneumoniae 177; assay: MIC of MEM with and without ML302F (1:8), VIM-1 producer; assay type: cell-based; conditions: Klebsiella pneumoniae; K. pneumoniae 177 (VIM-1); MEM alone or with ML302F (1:8)
# Method: (§1) In a further study, antimicrobial activities of MEM and ML302F alone and in combination were assessed in-vitro against 31 VIM-producing clinical isolates.
# [3] = system: K. pneumoniae GR54; assay: as above; assay type: cell-based; conditions: Klebsiella pneumoniae
# Method: as §1
# [4] = system: P. stuartii 70; assay: as above; assay type: cell-based; conditions: Providencia stuartii; P. stuartii 70 (VIM-1); MEM alone or with ML302F (1:8)
# Method: as §1
# [5] = system: P.. stuartii 67; assay: as above; assay type: cell-based; conditions: Providencia stuartii; P. stuartii 67 (VIM-1); MEM alone or with ML302F (1:8)
# Method: as §1
# [6] = system: P. aeruginosa 11 (13); assay: MIC of MEM with and without ML302F (1:8), VIM-2 producer; assay type: cell-based; conditions: Pseudomonas aeruginosa; P. aeruginosa 11 (13) (VIM-2); MEM alone or with ML302F (1:8)
# Method: as §1
# [7] = system: P. aeruginosa 11 (14); assay: as above; assay type: cell-based; conditions: Pseudomonas aeruginosa
# Method: as §1
# [8] = system: P. aeruginosa 12 (14); assay: as above; assay type: cell-based; conditions: Pseudomonas aeruginosa
# Method: as §1
# [9] = system: P. aeruginosa 13 (14); assay: as above; assay type: cell-based; conditions: Pseudomonas aeruginosa; P. aeruginosa 13 (14) (VIM-2); MEM alone or with ML302F (1:8)
# Method: as §1
# [10] = system: P. aeruginosa 14 (14); assay: as above; assay type: cell-based; conditions: Pseudomonas aeruginosa; P. aeruginosa 14 (14) (VIM-2); MEM alone or with ML302F (1:8)
# Method: as §1
# [11] = system: P. aeruginosa 15 (14); assay: as above; assay type: cell-based; conditions: Pseudomonas aeruginosa; P. aeruginosa 15 (14) (VIM-2); MEM alone or with ML302F (1:8)
# Method: as §1
# [12] = system: P. aeruginosa 16 (14); assay: as above; assay type: cell-based; conditions: Pseudomonas aeruginosa; P. aeruginosa 16 (14) (VIM-2); MEM alone or with ML302F (1:8)
# Method: as §1
# [13] = system: P. aeruginosa 27 (14); assay: as above; assay type: cell-based; conditions: Pseudomonas aeruginosa; P. aeruginosa 27 (14) (VIM-2); MEM alone or with ML302F (1:8)
# Method: as §1
# [14] = system: P. aeruginosa 3 (13); assay: as above; assay type: cell-based; conditions: Pseudomonas aeruginosa; P. aeruginosa 3 (13) (VIM-2); MEM alone or with ML302F (1:8)
# Method: as §1
# [15] = system: P. aeruginosa 30; assay: as above; assay type: cell-based; conditions: Pseudomonas aeruginosa; P. aeruginosa 30 (VIM-2); MEM alone or with ML302F (1:8)
# Method: as §1
# [16] = system: P. aeruginosa 47; assay: as above; assay type: cell-based; conditions: Pseudomonas aeruginosa; P. aeruginosa 47 (VIM-2); MEM alone or with ML302F (1:8)
# Method: as §1
# [17] = system: P. aeruginosa 50; assay: as above; assay type: cell-based; conditions: Pseudomonas aeruginosa; P. aeruginosa 50 (VIM-2); MEM alone or with ML302F (1:8)
# Method: as §1
# [18] = system: P. aeruginosa 6 (14); assay: as above; assay type: cell-based; conditions: Pseudomonas aeruginosa
# Method: as §1
# [19] = system: P. aeruginosa 8 (13); assay: as above; assay type: cell-based; conditions: Pseudomonas aeruginosa
# Method: as §1
# [20] = system: P. aeruginosa 9 (13); assay: as above; assay type: cell-based; conditions: Pseudomonas aeruginosa
# Method: as §1
# [21] = system: P. aeruginosa GR57; assay: as above; assay type: cell-based; conditions: Pseudomonas aeruginosa; P. aeruginosa GR57 (VIM-2); MEM alone or with ML302F (1:8)
# Method: as §1
# [22] = system: P. aeruginosa GR58; assay: as above; assay type: cell-based; conditions: Pseudomonas aeruginosa; P. aeruginosa GR58 (VIM-2); MEM alone or with ML302F (1:8)
# Method: as §1
# [23] = system: P. aeruginosa GR62; assay: as above; assay type: cell-based; conditions: Pseudomonas aeruginosa; P. aeruginosa GR62 (VIM-2); MEM alone or with ML302F (1:8)
# Method: as §1
# [24] = system: P. aeruginosa GR64; assay: as above; assay type: cell-based; conditions: Pseudomonas aeruginosa; P. aeruginosa GR64 (VIM-2); MEM alone or with ML302F (1:8)
# Method: as §1
# Chain of TEM-1 (P62593 24-286 limits assumed): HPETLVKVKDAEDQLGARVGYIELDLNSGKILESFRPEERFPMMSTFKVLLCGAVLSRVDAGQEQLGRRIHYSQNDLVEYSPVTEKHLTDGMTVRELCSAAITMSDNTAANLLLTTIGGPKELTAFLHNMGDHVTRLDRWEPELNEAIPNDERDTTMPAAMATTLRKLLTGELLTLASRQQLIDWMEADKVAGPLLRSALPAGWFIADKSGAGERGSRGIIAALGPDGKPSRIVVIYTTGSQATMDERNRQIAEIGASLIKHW
smiles,measurement,setting,value
"CN1CCN(NC(=O)CN2C(=O)C(=Cc3c(Cl)ccc(Cl)c3Cl)SC2=S)CC1 (mixture of isomers) [ML302, N-(4-Methylpiperazin-1-yl)-2-(4-oxo-2-thioxo-5-(2,3,6-trichlorobenzylidene)thiazolidin-3-yl)acetamide]",Inhibition verdict,[1],N.I.
same,remaining activity at 100 µM,[1],98.6 ± 7.1%
"O=C(O)C(S)=Cc1c(Cl)ccc(Cl)c1Cl (racemic) [ML302F, 2-Mercapto-3-(2,3,6-trichlorophenyl)acrylic acid]",Inhibition verdict,[1],N.I.
same,remaining activity at 100 µM,[1],99.6 ± 3.1%
"C[C@@H](O)[C@H]1C(=O)N2C(C(=O)O)=C(S[C@@H]3CN[C@H](C(=O)N(C)C)C3)[C@H](C)[C@H]12 [Meropenem, meropenem]",MIC,[2],1 µg/mL
same,MIC,[3],128 µg/mL
same,MIC,[4],8 µg/mL
same,MIC,[5],8 µg/mL
same,MIC,[6],32 µg/mL
same,MIC,[7],128 µg/mL
same,MIC,[8],128 µg/mL
same,MIC,[9],32 µg/mL
same,MIC,[10],64 µg/mL
same,MIC,[11],64 µg/mL
same,MIC,[12],64 µg/mL
same,MIC,[13],64 µg/mL
same,MIC,[14],64 µg/mL
same,MIC,[15],64 µg/mL
same,MIC,[16],32 µg/mL
same,MIC,[17],32 µg/mL
same,MIC,[18],128 µg/mL
same,MIC,[19],128 µg/mL
same,MIC,[20],128 µg/mL
same,MIC,[21],32 µg/mL
same,MIC,[22],32 µg/mL
same,MIC,[23],32 µg/mL
same,MIC,[24],32 µg/mL
